Patent publication US20200000752A1, “Method for Treating Epilepsy” (Vanderbilt University, priority 2016, published 2020)

What was measured:
[1] = Hepatic microsomal clearance (mouse); type: in vitro ADME; conditions: liver microsomes, pH 7.4
Experimental: Intrinsic clearance and predicted hepatic clearance: Intrinsic clearance will be determined using the substrate depletion approach. Reactions (0.3 mL) will be conducted using a Tecan EVO (San Jose, Calif.) in 96-well polypropylene cluster tubes with a temperature controlled water-jacketed aluminum plate holder held at 37° C. Incubations will be performed in triplicate in 0.1 M potassium phosphate buffer (pH 7.4), 3 mM MgCl2, 1 μM tizanidine, and 1 mg/mL liver microsomes. After incubation mixtures are equilibrated for 3 min at 37° C., reactions will be initiated with 10 mM NADPH to give a final NADPH concentration of 1 mM. At 0, 3, 7, 15, 25, and 45 min, a 25 μL aliquot will be removed from the reactions and delivered into 125 μL of acetonitrile containing an internal standard. The quench plates will then be centrifuged at 3,000×g for 10 min and an aliquot of the supernatants added to an injection plate with an equal volume of water. Samples will then be analyzed using LC/MS/MS.
Intrinsic clearance is calculated as: […]
Species-specific parameters for mouse and human liver protein content will be used. The predicted hepatic clearance will then be estimated using species-specific liver blood flow values: […]

[2] = Brain and plasma concentration of celastrol in mice (IP, oral gavage)
From the text: For chronic dosing, samples were collected 2 hrs after drug administration.
Blood samples for drug bioanalysis will be collected in EDTA plasma tubes, immediately centrifuged, and the plasma fraction frozen at −80 C until analysis. Whole brains will also be frozen until analysis. […] Study samples, standards, and quality control samples will be precipitated with acetonitrile containing an internal standard, centrifuging the samples, and then injecting the supernatant onto a reverse phase LC/MS/MS system. Assay performance will be checked with retention time, peak shape, and quality control samples. The free drug concentration from animal studies will be calculated by multiplying the in vitro plasma free fraction (funbound) by the determined plasma concentrations. […] GABAA receptor subunits, AKT and neuronal survival signaling molecules, heat shock protein and synaptic scaffold proteins will be the focus.

Gabrg2^+/Q390X mice [3] = assay: Early intermittent dosing, survival of Gabrg2+/Q390X mice; type: in vivo, mouse; conditions: 0.3 mg/kg intermittent from postnatal day 7; untreated ~25% mortality
From the text: (§1) (FIG. 5B, C). Gabrg2^+/Q390X mice in C57/BL/6J background had ˜25% of mortality (B) while Scn1a^+/− mice in C57/BL/6J background had ˜60% of mortality by week 7 (C). […] The Gabrg2^+/Q390X mice were in C57/BL/6J background while Scn1a^+/− sires were from mixed S129/C57BL/6J and the dams were congenic C57/BL/6J. For each mouse model, heterozygous pups of both male and female from 6-8 litters were included.

Scn1a^+/− mice [4] = assay: Early intermittent dosing, survival of Scn1a+/- mice; type: in vivo, mouse; conditions: 0.3 mg/kg intermittent from postnatal day 7; untreated ~60% mortality by week 7
From the text: as §1

[5] = tested on: cultured cortical neurons from the wild-type mouse brains; assay: Neuronal viability, trypan blue exclusion; type: cell-based; conditions: 0-8 μm for 4 hours, at the therapeutic levels
Experimental: The neuronal viability was determined with membrane integrity by trypan blue exclusion method^12. The mean survival was determined by counting eight randomly selected, non-overlapping fields with each containing approximately 10-20 neurons (viable+nonviable) (n=4 different cultures). GABAAR expression was determined by the high-throughput flow cytometry. HEK 293T cells were transfected with human α1, β2 and γ2 subunit cDNAs at 1:1:1 ratio for 48 hours. The α1 subunit was chosen as readout. The anti-α1 antibody was directly conjugated with Alexa 488 (data are mean±SEM, n=4). The healthy population was gated.

[6] = molecular target: T1, GABAA α1β2γ2(Q390X) receptors (Homo sapiens, UniProt P14867+P18507+P47870, DEL390-467); assay: Patch clamp current amplitude, α1β2γ2(Q390X) receptors in HEK 293T cells; type: cell-based; conditions: 1 μm, 4 hrs; GABA 1 mM
T1 construct: expressed in transfected cells; host or cells: HEK 293T
T1 sequence (P14867 28-456, stated change not applied): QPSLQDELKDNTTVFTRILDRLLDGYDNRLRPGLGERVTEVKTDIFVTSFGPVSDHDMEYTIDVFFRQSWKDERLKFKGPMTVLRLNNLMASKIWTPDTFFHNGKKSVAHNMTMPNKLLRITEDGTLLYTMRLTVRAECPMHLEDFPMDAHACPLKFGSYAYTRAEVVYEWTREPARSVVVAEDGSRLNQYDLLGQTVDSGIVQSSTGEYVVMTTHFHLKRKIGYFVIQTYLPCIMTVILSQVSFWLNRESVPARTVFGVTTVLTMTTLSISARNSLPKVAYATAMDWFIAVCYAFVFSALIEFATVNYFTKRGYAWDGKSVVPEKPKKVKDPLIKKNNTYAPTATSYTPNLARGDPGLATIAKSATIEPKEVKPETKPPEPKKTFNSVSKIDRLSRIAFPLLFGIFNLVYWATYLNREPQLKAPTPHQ
T1 sequence (P47870 26-512, stated change not applied): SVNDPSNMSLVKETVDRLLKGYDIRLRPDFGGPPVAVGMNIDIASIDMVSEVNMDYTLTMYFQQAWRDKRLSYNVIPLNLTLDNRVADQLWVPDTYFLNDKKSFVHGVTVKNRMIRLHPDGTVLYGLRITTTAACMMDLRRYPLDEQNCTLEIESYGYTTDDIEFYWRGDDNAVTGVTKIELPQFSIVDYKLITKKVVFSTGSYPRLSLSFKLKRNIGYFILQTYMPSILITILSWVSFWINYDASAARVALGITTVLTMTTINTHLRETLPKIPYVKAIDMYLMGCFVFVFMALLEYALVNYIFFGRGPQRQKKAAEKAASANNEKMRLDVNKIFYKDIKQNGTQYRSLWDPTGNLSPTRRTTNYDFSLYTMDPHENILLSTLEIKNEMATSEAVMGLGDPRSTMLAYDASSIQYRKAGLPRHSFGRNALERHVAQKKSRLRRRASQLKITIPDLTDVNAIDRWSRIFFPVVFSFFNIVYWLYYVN
T1 sequence (P18507 40-389 isoform P18507-1 limits assumed, stated change not applied): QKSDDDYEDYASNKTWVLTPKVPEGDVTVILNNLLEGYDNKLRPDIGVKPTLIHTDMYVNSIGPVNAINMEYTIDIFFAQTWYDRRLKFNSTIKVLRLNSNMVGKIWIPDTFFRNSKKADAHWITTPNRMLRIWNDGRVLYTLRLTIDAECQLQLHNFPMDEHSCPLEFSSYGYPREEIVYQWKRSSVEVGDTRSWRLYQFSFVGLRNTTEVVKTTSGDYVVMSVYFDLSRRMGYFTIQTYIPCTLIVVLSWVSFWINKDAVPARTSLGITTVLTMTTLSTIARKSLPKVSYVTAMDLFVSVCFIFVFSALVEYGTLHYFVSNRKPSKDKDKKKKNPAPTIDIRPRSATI
Experimental: HEK 293T cells were transfected with the human GABAA receptor α1, β2 subunits with the wild-type γ2s, the mutant γ2s(Q390X) or γ2s(R82Q) subunits for 48 hrs. […] A. Lifted whole cells were recorded with the application of GABA 1 mM for 6 sec. Cells was voltage clamped at −50 mV.
HEK 293T cells were transfected with the human GABAA receptor α1, β2 subunits with the wild-type γ2s, the mutant γ2s(Q390X) or γ2s(R82Q) subunits for 48 hrs.

Gabrg2^+/Q390X mice [7] = assay: Barnes maze, Gabrg2+/Q390X mice; type: in vivo, mouse; conditions: 0.3 mg/kg IP for 2 weeks, 2-4 months old
Experimental: (§2) Flow chart in FIG. 13A depicts an overview of the Barnes maze. In training trials which are considered as learning test, time spent to locate the target hole was recorded and quantified for each day in each mouse genotype. In probe trials which are considered as memory test, an hour after the last training trial, each mouse was allotted a 300 sec session to find the target hole. […]. The total time spent at each of the 12 holes was assessed.

Gabrb3^+/− mice = assay: Barnes maze, Gabrb3+/- mice; type: in vivo, mouse; conditions: 0.3 mg/kg IP for 2 weeks, 6-8 months old
Experimental: as §2

[8] = tested on: mutant GABAA α1β2γ2(R82Q) receptors; assay: Expression of mutant α1β2γ2(R82Q) receptor subunits in HEK 293T cells (SDS-PAGE immunoblot); type: cell-based
Experimental: HEK 293T cells were transfected with α1, […] and the mutant γ2(R82Q) subunits at 1:1:1 cDNA ratio for 48 hrs. […] (FIG. 20A). Total cell lysates were analyzed by SDS-PAGE and the membrane was immunoblotted against al or γ2 subunits. (FIG. 20A). Protein IDVs of al or γ2 subunits were normalized to the cells without treatment (0) (FIG. 20B).

Scn1a^+/− mice [9] = assay: Survival and seizure activity in Scn1a+/- mice after 1 month off celastrol; type: in vivo, mouse; conditions: 0.3 mg/kg 14 d on and 1 month off
From the text: Intermittent dosing will greatly increase compliance and reduce side effects for long-term treatment. However, it is necessary to determine the duration the efficacy lasts after certain doses and the duration it takes to recover to baseline.

AppSWE/PsenIdE9 mice = conditions: mouse, in vivo; cited from earlier work

CC1=C(O)C(=O)C=C2C1=CC=C1[C@@]2(C)CC[C@@]2(C)[C@@H]3C[C@](C)(C(=O)O)CC[C@]3(C)CC[C@]12C [Celastrol, 3-Hydroxy-9β,13α-dimethyl-2-oxo-24,25,26-trinoroleana-1(10),3,5,7-tetraen-29-oic acid]
CLint scaled [1]: 160 mL/min/kg
celastrol concentration in the mouse brain ([2]; level with good efficacy): 120-150 nm
Kp at 24 h ([2]; mouse, brain, intraperitoneal, 0.3 mg/kg): > 1.2
concentration at 2 h ([2]; mouse, brain, po, 3 mg/kg): 121 nM
survival (Gabrg2^+/Q390X mice [3]): completely rescued the survival
survival (Scn1a^+/− mice [4]): completely rescued the survival
cell viability [5]: no reduced cell viability
current amplitude [6]: increased
time spent at target hole in probe trial (Gabrg2^+/Q390X mice [7]): spent more time in the target hole area
time spent at target hole in probe trial (Gabrb3^+/− mice): spent more time in the target hole area
expression of mutant α1β2γ2(R82Q) receptors ([8]; applied 4 hrs before harvest): increased
enhancing GABAA receptor subunit expression, comparison ([8]; different concentrations, 4 hrs): more effective in enhancing GABAA receptor subunit expression than Stiripentol
seizure duration after PTZ (Scn1a^+/− mice [9]): shortened seizure duration
seizure onset after PTZ (Scn1a^+/− mice [9]): delayed seizure onset
seizure severity after PTZ (Scn1a^+/− mice [9]): reduced seizure severity
survival (Scn1a^+/− mice [9]; vs untreated littermates): increased survival
memory (AppSWE/PsenIdE9 mice): improve memory
